Measurements reported in patent publication US20240279176A1, “SUBSTITUTED TRICYCLIC HETEROCYCLIC COMPOUNDS AS METALLO-BETA-LACTAMASE INHIBITORS” (priority 2021, published 2024).
Read-outs that look alike come from different tables or passages of the source.

Legend:
[1] = target: IMP-1 (Serratia marcescens, UniProt P52699); assay: Enzyme activity: IC50 in fluorescence assay with cephalosporin substrate FC5; format: biochemical; conditions: 100 pM IMP-1, 10 μM FC5, 10 min pre-incubation
Protocol: (§1) The Class B beta-lactamases activities were measured in the presence of the test inhibitors in a fluorescence assay against an in-house synthesized fluorescent cephalosporin substrate FC5 (Berkel, et. al. J. Med. Chem. 2013, 56(17), 6945). The enzymes (NDM-1, IMP-1) and the substrate were diluted in 20 mM HEPES, pH 7.4, supplemented with 300 mM NaCl and 10 μM ZnSO4. In the assay, the final concentration of enzyme was 50 pM, and 100 pM for NDM-1, and IMP-1 respectively, and the final concentration of FC5 was 1.5 μM for NDM-1 and 10 μM for IMP-1. The test inhibitors/compounds were dissolved in dimethylsulfoxide (DMSO) and diluted in the assay with assay buffer (20 mM HEPES, pH 7.4, supplemented with 5% DMSO, 300 mM NaCl and 10 μM ZnSO4), resulting in a final concentration range of 0.008 μM to 25 μM. The assays were performed in 96-well microplate (flat bottom, black). The test inhibitors were incubated with the MBL enzyme for 10 min at room temperature, followed by addition the substrate and the fluorescence was recorded immediately (λex 380 nm, λem 460 nm) on a microplate reader. Using the initial velocity data plotted against the inhibitor concentration, the half-maximal inhibitory concentrations were calculated by an IC50 curve-fitting model in GraphPad Prism 9 software.

[2] = target: NDM-1 (Klebsiella pneumoniae, UniProt C7C422); assay: as above; format: biochemical; conditions: 50 pM NDM-1, 1.5 μM FC5, 10 min pre-incubation
Protocol: as §1

[3] = tested on: Klebsiella pneumoniae ATCC BAA-2146; assay: Minimum inhibitory concentration (MIC), broth-microdilution (CLSI); format: cell-based; conditions: ATCCBAA2146, compound alone, K. pneumoniae ATCC BAA-2146, read-out: Intrinsic MIC
From the text: (§2) The strain included in the study was Klebsiella pneumoniae ATCC BAA-2146 (Himedia®, India) with presence of New Delhi metallo-β-lactamase (NDM-1) gene. The quality control reference strains Escherichia coli ATCC 25922 and Pseudomonas aeruginosa ATCC 27853 were procured from Himedia®, India.
MIC values were identified through broth-microdilution in sterilized 96-well polystyrene flat-bottom microtitre plates (Cole-Parmer®) according to the guideline of the Clinical and Laboratory Standards Institute (CLSI) (CLSI; Methods for dilution antimicrobial susceptibility tests for bacteria that grow aerobically; Clinical Laboratory Standards Institute, M07-A09, 2012). This method involves the use of BBL™ Cation-adjusted Mueller-Hinton II Broth (CA-MHB; BD) and the strain (Klebsiella pneumoniae ATCC BAA-2146) concentration was adjusted to 5×10^5 CFU/mL. After 16-18 h of incubation at various concentrations of Imipenem, Meropenem (Alfa Aesar), or test compounds at 37° C., MIC was defined as the lowest concentration of antibiotic or test compound with no visible growth.

[4] = tested on: Klebsiella pneumoniae ATCC BAA-2146; assay: Checkerboard synergy assay in combination with Imipenem; format: cell-based; conditions: K. pneumoniae ATCC BAA-2146; for Fold reduction in Imipenem MIC in the presence of compounds (μg/mL) 4: compound at 4 μg/mL; for Fold reduction in Imipenem MIC in the presence of compounds (μg/mL) 8: compound at 8 μg/mL; for Fold reduction in Imipenem MIC in the presence of compounds (μg/mL) 16: compound at 16 μg/mL; for Fold reduction in Imipenem MIC in the presence of compounds (μg/mL) 32: compound at 32 μg/mL
From the text: as §2
(§3) The fold modulation activity of test compounds, in combination with Imipenem or Meropenem, was checked against Klebsiella pneumoniae ATCC BAA-2146 strain by the broth-microdilution checkerboard synergy assay. The plates contained 5×10^5 CFU/mL bacterial inocula and 2-fold serial dilutions of the antibiotics (128-2 μg/mL) as well as test compounds (32-4 μg/mL) in a total volume of 200 μL of CA-MHB. Dimethyl sulfoxide (DMSO, ≤2.5%) was included as vehicle control. Following 16-18 h of incubation at 37° C., the MICs of antibiotics as well as drug combinations were visually inspected.

[5] = tested on: Klebsiella pneumoniae ATCC BAA-2146; assay: Checkerboard synergy assay in combination with Meropenem; format: cell-based; conditions: K. pneumoniae ATCC BAA-2146; for Fold reduction in meropenem MIC in the presence of compounds (μg/mL) 4: compound at 4 μg/mL; for Fold reduction in meropenem MIC in the presence of compounds (μg/mL) 8: compound at 8 μg/mL; for Fold reduction in meropenem MIC in the presence of compounds (μg/mL) 16: compound at 16 μg/mL; for Fold reduction in meropenem MIC in the presence of compounds (μg/mL) 32: compound at 32 μg/mL
From the text: as §2, §3

Sequence of NDM-1 (C7C422 29-270, looked up): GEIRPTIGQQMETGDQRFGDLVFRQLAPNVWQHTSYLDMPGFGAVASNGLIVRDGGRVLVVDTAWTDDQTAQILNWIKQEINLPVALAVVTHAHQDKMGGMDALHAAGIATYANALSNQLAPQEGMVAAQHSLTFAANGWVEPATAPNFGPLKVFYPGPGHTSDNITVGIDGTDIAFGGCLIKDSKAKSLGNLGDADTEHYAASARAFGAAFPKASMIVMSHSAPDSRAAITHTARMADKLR
Sequence of IMP-1 (P52699 19-246, looked up, species assumed): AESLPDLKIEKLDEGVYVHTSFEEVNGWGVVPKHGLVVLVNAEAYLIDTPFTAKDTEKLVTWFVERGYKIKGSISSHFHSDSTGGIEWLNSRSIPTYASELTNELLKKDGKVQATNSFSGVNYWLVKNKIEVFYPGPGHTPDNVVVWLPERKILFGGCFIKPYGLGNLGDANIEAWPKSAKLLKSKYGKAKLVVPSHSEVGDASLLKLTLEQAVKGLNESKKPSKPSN

| SMILES | IC50 [1] [µM] | IC50 [2] [µM] | MIC ([3]; Imipenem series) [µg/mL] | MIC ([3]; meropenem series) [µg/mL] | Fold reduction in Imipenem MIC in the presence of compounds (μg/mL) 4 [4] [fold] | Fold reduction in Imipenem MIC in the presence of compounds (μg/mL) 8 [4] [fold] | Fold reduction in Imipenem MIC in the presence of compounds (μg/mL) 16 [4] [fold] | Fold reduction in Imipenem MIC in the presence of compounds (μg/mL) 32 [4] [fold] | Fold reduction in meropenem MIC in the presence of compounds (μg/mL) 4 [5] [fold] | Fold reduction in meropenem MIC in the presence of compounds (μg/mL) 8 [5] [fold] | Fold reduction in meropenem MIC in the presence of compounds (μg/mL) 16 [5] [fold] | Fold reduction in meropenem MIC in the presence of compounds (μg/mL) 32 [5] [fold] |
| --- | --- | --- | --- | --- | --- | --- | --- | --- | --- | --- | --- | --- |
| O=C(O)c1[nH]c2c(c1-c1cccc(F)c1F)CCc1ccccc1-2 [Example 47, 3-(2,3-difluorophenyl)-4,5-dihydro-1H-benzo[g]indole-2-carboxylic Acid] | 3.3 | 0.323 | > 128 | > 128 | 2 | 4 | 4 | 8 | 2 | 4 | 4 | 4 |
| CC(C)(C)c1ccc(-c2c(C(=O)O)[nH]c3c2CCc2ccccc2-3)cc1 [Example 39, 3-(4-(tert-Butyl)phenyl)-4,5-dihydro-1H-benzo[g]indole-2-carboxylic Acid] | 72.1 | 0.591 | > 64 | > 64 | 2 | 4 | 4 | 4 | 4 | 4 | 4 | 4 |
| O=C(O)c1[nH]c2c(c1-c1ccc(F)c(F)c1)CCc1ccccc1-2 [Example 37, 3-(3,4-Difluorophenyl)-4,5-dihydro-1H-benzo[g]indole-2-carboxylic Acid] | 3.86 | 0.342 | > 64 | > 64 | 2 | 2 | 4 | 4 | 4 | 4 | 4 | 4 |
| O=C(O)c1[nH]c2c(c1-c1cncc(Cl)c1)CCc1ccccc1-2 [Example 54, 3-(5-chloropyridin-3-yl)-4,5-dihydro-1H-benzo[g]indole-2-carboxylic Acid] | 1.36 | 0.075 | > 128 | > 128 | 4 | 4 | 8 | 8 | 4 | 4 | 8 | 8 |
